Results from patent publication US8673957B2, “Fluorescent probe” (Tetsuo Nagano, priority 2003, dated 2014).

How the values were obtained:
[1] = Reaction with nitrogen monoxide (NOC 13 as nitrogen monoxide generating agent), excitation/fluorescence spectra and HPLC; conditions: 1 hour, 0.1 M sodium phosphate buffer (pH 7.4)
Experimental: NOC 13, which is a nitrogen monoxide generating agent, was added to Compound (7), and changes of excitation and fluorescence emission spectra were measured. The compound (7) at 5 μM (cosolvent: 0.1% DMSO) and NOC 13 were incubated at 37° C. for 1 hour in 0.1 M sodium phosphate buffer (pH 7.4), and then excitation and fluorescence spectra were measured. The measurement was performed with slit widths of Ex/Em=2.5/2.5 nm, excitation wavelength of 520 nm, and emission wavelength of 535 nm.

[2] = Fluorescence spectrum: fluorescence characteristics and quantum yield; format: physicochemical; conditions: 0.1 M sodium phosphate buffer (pH 7.4), 20° C.
Experimental: The fluorescence characteristics of Compound (7) and Compound (8) were measured. The quantum yield was measured by using F-4500 (Hitachi), and the other spectra were measured by using LS50B (Perkin Elmer). The measurement was performed at 20° C. for a solution of a sample dissolved in 0.1 M sodium phosphate buffer (pH 7.4) using dimethyl sulfoxide of less than 0.2% as a cosolvent. The quantum yield was calculated relative to that of fluorescein, which was 0.85 in aqueous 0.1 M NaOH. When similar quantum yield measurements were performed for a compound of the formula (I) wherein R^6 and R^9 were hydrogen atoms (p-DAMBO) and a compound of the formula (II) wherein R^16 and R^19 were hydrogen atoms (p-DAMBO-T) as controls, the quantum yields were 0.001 and 0.40, respectively.

[3] = Effect of pH on the fluorescence intensity; format: physicochemical; conditions: 0.1 M sodium phosphate buffer, 0.1% DMSO, pH range of from 3 to 13
Experimental: Compounds (7) and (8) were dissolved in 0.1 M sodium phosphate buffer (cosolvents 0.1% DMSO) adjusted to various pH values, and fluorescence was measured in the same manner as those in the aforementioned (b). […] Therefore, according to the measurement of nitrogen monoxide by using the compound of the present invention, extremely high accuracy of the measurement is achieved for a biosample with pH fluctuation.

[4] = DMSO less than 0.2% as cosolvent

Row | SMILES | rate of reaction with nitrogen monoxide (HPLC of product) ([1]; compound at 5 μM with NOC 13, 37° C.) | change of fluorescence after addition of NOC 13 ([1]; compound at 5 μM, NOC 13 0-5.0 μM, 37° C., Ex 520 nm / Em 535 nm) | Emission maximum [2, 4] [nm] | Extinction coefficient [2, 4] [M⁻¹ cm⁻¹] | Extinction maximum [2, 4] [nm] | Relative quantum yield ([2]; relative to fluorescein (0.85 in aqueous 0.1 M NaOH)) | change in fluorescence intensity with pH [3]
1 | CC1=C(CCC(=O)O)C(C)=[N+]2C1=C(c1ccc(N)c(N)c1)c1c(C)c(CCC(=O)O)c(C)n1[B-]2(F)F [Compound (7), 8-(3,4-Diaminophenyl)-2,6-bis(2-carboxyethyl)-4,4-difluoro-1,3,5,7-tetramethyl-4-bora-3a,4a-diaza-s-indacene] | extremely rapid reaction | Increase of fluorescence depending on the concentration of added NOC 13 |  |  |  |  | 
2 | CC1=C(CCC(=O)O)C(C)=[N+]2C1=C(c1ccc3[nH]nnc3c1)c1c(C)c(CCC(=O)O)c(C)n1[B-]2(F)F [Compound (8), 8-(5-Benzotriazolyl)-2,6-bis(2-carboxyethyl)-4,4-difluoro-1,3,5,7-tetramethyl-4-bora-3a,4a-diaza-s-indacene] |  |  | 537 | 56000 | 521 | 0.74 | Almost no change in the fluorescence intensity
